Test [1] has as its target T1, human sphingosine-1-phosphate receptor 1 (S1P1) (Homo sapiens (Human), UniProt P21453). In words: β-Arrestin2 recruitment assay (PathHunter), S1P1 CHO-K1 cells. It counts as cell-based. Particulars: for hS1P1 B-arrestin2 pEC50: β-arrestin2 recruitment, S1P1 CHO-K1 cells; for Emax: CHO-K1, efficacy (SPAN) normalized to fingolimod, read-out: hS1P1 B-arrestin2 SPAN. The method, boiled down:
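Enzyme-fragment complementation read-out: agonist-driven β-arrestin2 binding to ProLink-tagged human S1P1 in stable CHO-K1 cells restores β-galactosidase, measured 1 h at room temperature after a 60 min 37° C. compound incubation. Potency as pEC50, efficacy relative to fingolimod (SPAN).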
Target sequence in this assay (P21453 whole entry, looked up, the tested form may be a part): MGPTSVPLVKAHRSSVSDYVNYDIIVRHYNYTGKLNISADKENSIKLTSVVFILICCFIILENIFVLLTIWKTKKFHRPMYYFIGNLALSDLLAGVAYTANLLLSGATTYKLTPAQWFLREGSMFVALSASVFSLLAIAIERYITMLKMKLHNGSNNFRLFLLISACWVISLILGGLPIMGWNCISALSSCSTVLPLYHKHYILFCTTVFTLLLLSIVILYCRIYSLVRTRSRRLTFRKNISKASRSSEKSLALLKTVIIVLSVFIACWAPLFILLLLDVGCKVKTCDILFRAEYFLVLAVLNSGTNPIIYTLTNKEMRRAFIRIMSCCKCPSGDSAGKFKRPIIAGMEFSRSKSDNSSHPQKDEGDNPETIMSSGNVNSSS
Target sequence in this assay (P32121 whole entry partner, looked up, the tested form may be a part): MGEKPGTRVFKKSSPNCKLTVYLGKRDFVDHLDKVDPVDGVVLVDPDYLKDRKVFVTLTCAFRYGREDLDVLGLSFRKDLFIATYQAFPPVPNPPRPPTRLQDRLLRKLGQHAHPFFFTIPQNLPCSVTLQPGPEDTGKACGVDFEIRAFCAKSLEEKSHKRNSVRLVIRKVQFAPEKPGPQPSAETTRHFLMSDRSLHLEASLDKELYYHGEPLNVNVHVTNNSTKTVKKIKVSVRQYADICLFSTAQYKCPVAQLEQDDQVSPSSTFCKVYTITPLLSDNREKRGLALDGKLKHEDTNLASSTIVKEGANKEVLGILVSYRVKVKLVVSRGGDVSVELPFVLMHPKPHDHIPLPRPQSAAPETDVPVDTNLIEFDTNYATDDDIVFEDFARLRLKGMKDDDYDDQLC

The target of test [2] is T1, human sphingosine-1-phosphate receptor 1 (S1P1). In words: Inhibition of cAMP production (HTRF cAMP HiRange), S1P1 CHO-K1 cells. It counts as cell-based. The following applies: for hS1P1 cAMP pEC50: inhibition of cAMP production, S1P1 CHO-K1 cells; for Emax: CHO-K1, efficacy (SPAN) normalized to fingolimod, read-out: hS1P1 cAMP SPAN. The method, boiled down:
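CHO-K1 cells stably co-expressing human S1P1 (C-terminal Prolink tag) and EA-β-arrestin2 were grown in AssayComplete Media 6 at 37° C. and 5% CO2, plated, and incubated overnight. Agonist-driven inhibition of intracellular cAMP was read by TR-FRET with the HTRF cAMP HiRange kit on a PheraStar reader. Potency is pEC50, and efficacy (SPAN) is normalized to fingolimod.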
Target sequence in this assay (P21453 whole entry, looked up, the tested form may be a part): as the sequence (P21453 whole entry, looked up, the tested form may be a part) above
A general note: cAMP levels reflect the balance of adenylyl cyclase and phosphodiesterase activity.

SMILES strings stand for the structures. Some results are limits rather than exact numbers.

The results in this text go back to patent publication US11912693B2, “Compounds for modulating S1P1 activity and methods of using the same” (TREVENA, INC., priority 2017, dated 2024).

For `Cc1ccccc1-c1noc(-c2ccc3c(c2)nnn3C2CC2)n1` [Compound 171, 1-cyclopropyl-5-[3-(2-methylphenyl)-1,2,4-oxadiazol-5-yl]-1H-1,2,3-benzotriazole], the “hS1P1 B-arrestin2 pEC50” value in test [1] is reported as greater than 5. The “hS1P1 cAMP pEC50” value in test [2] was greater than 6.5.

In the case of `COc1ncccc1-c1noc(-c2ccc3c(c2)nnn3C(C)C)n1` [Compound 619, 5-(1-isopropyl-1H-benzo[d][1,2,3]triazol-5-yl)-3-(2-methoxypyridin-3-yl)-1,2,4-oxadiazole], the “hS1P1 B-arrestin2 pEC50” value in test [1] is given as greater than 5. Moreover, the “hS1P1 cAMP pEC50” value in test [2] is recorded as greater than 6.5.

With `O=C1c2cc(-c3nc(-c4cccnc4)no3)ccc2OC(CO)(CO)C1Br` (centres unmarked) [Compound 479, 3-bromo-2,2-bis(hydroxymethyl)-6-[3-(pyridin-3-yl)-1,2,4-oxadiazol-5-yl]-3,4-dihydro-2H-1-benzopyran-4-one], in test [1], the “hS1P1 B-arrestin2 pEC50” value is reported as less than 5. Besides, the “hS1P1 cAMP pEC50” value in test [2] is recorded as less than 6.5.

On to `CC(C)n1nnc2cc(-c3nc(-c4ccncc4)no3)ccc21` [Compound 244, 1-(propan-2-yl)-5-[3-(pyridin-4-yl)-1,2,4-oxadiazol-5-yl]-1H-1,2,3-benzotriazole], for which, in test [1], the Emax is greater than 75% and the “hS1P1 B-arrestin2 pEC50” value is recorded as greater than 5. Also, in test [2], the Emax is greater than 75% and the “hS1P1 cAMP pEC50” value was greater than 6.5.

Consider `CC(C)(CO)n1nnc2cc(-c3noc(-c4ccc5nc[nH]c5c4)n3)ccc21` [Compound 642, 2-(5-(5-(1H-benzo[d]imidazol-6-yl)-1,2,4-oxadiazol-3-yl)-1H-benzo[d][1,2,3]triazol-1-yl)-2-methylpropan-1-ol], for which, in test [1], the “hS1P1 B-arrestin2 pEC50” value is recorded as less than 5. Moreover, the “hS1P1 cAMP pEC50” value in test [2] is less than 6.5.

In the case of `COc1ccc(-c2nc(-c3ccc4c(c3)nnn4C(C)C)no2)cc1` [Compound 69, 3-(1-isopropylbenzotriazol-5-yl)-5-(4-methoxyphenyl)-1,2,4-oxadiazole], in test [1], the Emax was less than 75% and the “hS1P1 B-arrestin2 pEC50” value is recorded as greater than 5. In addition, in test [2], the Emax is less than 75% and the “hS1P1 cAMP pEC50” value is reported as less than 6.5.

For `COc1ccccc1-c1nnc(-c2ccc3[nH]c(=O)oc3c2)o1` [Compound 349, 6-[5-(2-methoxyphenyl)-1,3,4-oxadiazol-2-yl]-2,3-dihydro-1,3-benzoxazol-2-one], in test [1], the Emax is less than 75% and the “hS1P1 B-arrestin2 pEC50” value is on record as less than 5. Moreover, in test [2], the Emax is less than 75% and the “hS1P1 cAMP pEC50” value is recorded as greater than 6.5.

For the compound `O=C1CCc2cc(-c3nc(-c4cccnc4)no3)ccc2N1` [Compound 386, 6-[3-(pyridin-3-yl)-1,2,4-oxadiazol-5-yl]-1,2,3,4-tetrahydroquinolin-2-one], the “hS1P1 B-arrestin2 pEC50” value in test [1] is recorded as less than 5. Moreover, the “hS1P1 cAMP pEC50” value in test [2] is less than 6.5.

With `Brc1ccccc1-c1noc(-c2ccc3[nH]nnc3c2)n1` [Compound 190, 5-[3-(2-bromophenyl)-1,2,4-oxadiazol-5-yl]-1H-1,2,3-benzotriazole], in test [1], the Emax is less than 75% and the “hS1P1 B-arrestin2 pEC50” value was less than 5. Moreover, in test [2], the Emax was less than 75% and the “hS1P1 cAMP pEC50” value is less than 6.5.

`COc1cnc(-c2nc(-c3ccc4c(c3)nnn4C(C)C)no2)cn1` [Compound 51, 3-(1-isopropyl-1H-benzo[d][1,2,3]triazol-5-yl)-5-(5-methoxypyrazin-2-yl)-1,2,4-oxadiazole]: in test [1], the “hS1P1 B-arrestin2 pEC50” value is reported as less than 5. Moreover, the “hS1P1 cAMP pEC50” value in test [2] is given as less than 6.5.

In the case of `N#Cc1cc(-c2nnc(-c3ccc4[nH]c(=O)oc4c3)o2)ccc1NCC1CC1` [Compound 486, 2-[(cyclopropylmethyl)amino]-5-[5-(2-oxo-2,3-dihydro-1,3-benzoxazol-6-yl)-1,3,4-oxadiazol-2-yl]benzonitrile], the “hS1P1 B-arrestin2 pEC50” value in test [1] is reported as less than 5. The “hS1P1 cAMP pEC50” value in test [2] is greater than 6.5.

For the compound `N#Cc1cc(-c2nnc(-c3ccc4[nH]ncc4c3)o2)ccc1NCCF` [Compound 353, 2-[(2-fluoroethyl)amino]-5-[5-(1H-indazol-5-yl)-1,3,4-oxadiazol-2-yl]benzonitrile], in test [1], the Emax is greater than 75% and the “hS1P1 B-arrestin2 pEC50” value is greater than 5. Further, in test [2], the Emax is greater than 75% and the “hS1P1 cAMP pEC50” value is listed as greater than 6.5.

Turning to `CC(C)n1nnc2cc(-c3ncc(-c4ccccc4Br)s3)ccc21` [Compound 220, 5-(2-bromophenyl)-2-(1-isopropylbenzotriazol-5-yl)thiazole], in test [1], the “hS1P1 B-arrestin2 pEC50” value is listed as less than 5. Moreover, the “hS1P1 cAMP pEC50” value in test [2] is on record as less than 6.5.

`Cn1cnc2ccc(-c3nnc(-c4ccc(NCC(F)(F)CO)c(C#N)c4)o3)cc21` [Compound 635, 2-[(2,2-difluoro-3-hydroxypropyl)amino]-5-[5-(1-methyl-1H-1,3-benzodiazol-6-yl)-1,3,4-oxadiazol-2-yl]benzonitrile]: the “hS1P1 B-arrestin2 pEC50” value in test [1] is greater than 5. In addition, the “hS1P1 cAMP pEC50” value in test [2] is given as greater than 6.5.

For the compound `CC(C)n1nnc2cc(-c3nc4c(ccc5sccc54)o3)ccc21` [Compound 457, 4-[1-(propan-2-yl)-1H-1,2,3-benzotriazol-5-yl]-5-oxa-10-thia-3-azatricyclo[7.3.0.0^2,6]dodeca-1(9),2(6),3,7,11-pentaene], in test [1], the Emax is greater than 75% and the “hS1P1 B-arrestin2 pEC50” value is less than 5. Also, in test [2], the Emax was greater than 75% and the “hS1P1 cAMP pEC50” value is recorded as greater than 6.5.

For the compound `COc1cc(NC(C)=O)ccc1-c1noc(-c2ccc3nonc3c2)n1` [Compound 533, N-{4-[5-(2,1,3-benzoxadiazol-5-yl)-1,2,4-oxadiazol-3-yl]-3-methoxyphenyl}acetamide], the “hS1P1 B-arrestin2 pEC50” value in test [1] is less than 5. Further, the “hS1P1 cAMP pEC50” value in test [2] is reported as less than 6.5.

In the case of `N#Cc1cc(-c2nnc(-c3ccc4c(c3)CCC(=O)N4)o2)ccc1NCCF` [Compound 476, 2-[(2-fluoroethyl)amino]-5-[5-(2-oxo-1,2,3,4-tetrahydroquinolin-6-yl)-1,3,4-oxadiazol-2-yl]benzonitrile], in test [1], the “hS1P1 B-arrestin2 pEC50” value is listed as greater than 5. Moreover, in test [2], the “hS1P1 cAMP pEC50” value is on record as greater than 6.5.

For the compound `CC(C)Nc1ccc(-c2nnc(-c3ccc4c(c3)ncn4C)o2)cc1C#N` [Compound 572, 5-[5-(1-methyl-1H-1,3-benzodiazol-5-yl)-1,3,4-oxadiazol-2-yl]-2-[(propan-2-yl)amino]benzonitrile], the “hS1P1 B-arrestin2 pEC50” value in test [1] is recorded as less than 5. Also, the “hS1P1 cAMP pEC50” value in test [2] is less than 6.5.

Take `COc1ccc2nc(-c3ccc4c(c3)nnn4CC(C)C)oc2c1` [Compound 452, 2-(1-isobutyl-1H-benzo[d][1,2,3]triazol-5-yl)-6-methoxybenzo[d]oxazole]: in test [1], the Emax was less than 75% and the “hS1P1 B-arrestin2 pEC50” value is greater than 5. In test [2], the Emax was greater than 75% and the “hS1P1 cAMP pEC50” value is less than 6.5.

Consider `Cc1cc(C)cc(-c2noc(-c3ccc4c(c3)nnn4C3CCCCC3)n2)c1` [Compound 158, 1-cyclohexyl-5-[3-(3,5-dimethylphenyl)-1,2,4-oxadiazol-5-yl]-1H-1,2,3-benzotriazole], for which, in test [1], the Emax is less than 75% and the “hS1P1 B-arrestin2 pEC50” value is recorded as less than 5. Further, in test [2], the Emax was less than 75% and the “hS1P1 cAMP pEC50” value is less than 6.5.

Consider `COc1cccc(-c2nc(-c3ccc4c(c3)nnn4C3CCCC3)no2)c1` [Compound 130, 3-(1-cyclopentyl-1H-benzo[d][1,2,3]triazol-5-yl)-5-(3-methoxyphenyl)-1,2,4-oxadiazole], for which, in test [1], the Emax is less than 75% and the “hS1P1 B-arrestin2 pEC50” value is listed as less than 5. In test [2], the Emax was less than 75% and the “hS1P1 cAMP pEC50” value is less than 6.5.

Regarding `COc1cccnc1-c1noc(-c2ccc3c(c2)nnn3C(C)C)n1` [Compound 627, 5-(1-isopropyl-1H-benzo[d][1,2,3]triazol-5-yl)-3-(3-methoxypyridin-2-yl)-1,2,4-oxadiazole], in test [1], the Emax is greater than 75% and the “hS1P1 B-arrestin2 pEC50” value is less than 5. Further, in test [2], the Emax was greater than 75% and the “hS1P1 cAMP pEC50” value is reported as less than 6.5.

With `COc1ccc(-c2nc(-c3ccc4c(c3)nnn4C3CCCC3)no2)cc1` [Compound 196, 3-(1-cyclopentyl-1H-benzo[d][1,2,3]triazol-5-yl)-5-(4-methoxyphenyl)-1,2,4-oxadiazole], the “hS1P1 B-arrestin2 pEC50” value in test [1] is listed as less than 5. The “hS1P1 cAMP pEC50” value in test [2] is listed as less than 6.5.

`CCC1(CC)CC(=O)c2cc(-c3nc(-c4cncc(NS(C)(=O)=O)c4)no3)ccc2O1` [Compound 545, N-(5-(5-(2,2-diethyl-4-oxochroman-6-yl)-1,2,4-oxadiazol-3-yl)pyridin-3-yl)methanesulfonamide]: in test [1], the Emax was greater than 75% and the “hS1P1 B-arrestin2 pEC50” value is greater than 5. Besides, in test [2], the Emax is greater than 75% and the “hS1P1 cAMP pEC50” value is given as greater than 6.5.

For the compound `Cc1ccncc1-c1noc(-c2ccc3nnn(CC(C)C)c3c2)n1` [Compound 3, 1-(2-methylpropyl)-6-[3-(4-methylpyridin-3-yl)-1,2,4-oxadiazol-5-yl]-1H-1,2,3-benzotriazole], in test [1], the “hS1P1 B-arrestin2 pEC50” value is on record as greater than 5. For the same compound, in test [2], the “hS1P1 cAMP pEC50” value is given as greater than 6.5.

As to `COc1ccc(-c2nc(-c3ccc4c(c3)nnn4CC(C)(C)CO)no2)c(C)c1` [Compound 523, 3-(5-(5-(4-methoxy-2-methylphenyl)-1,2,4-oxadiazol-3-yl)-1H-benzo[d][1,2,3]triazol-1-yl)-2,2-dimethylpropan-1-ol], the “hS1P1 B-arrestin2 pEC50” value in test [1] was less than 5. In addition, in test [2], the “hS1P1 cAMP pEC50” value is recorded as less than 6.5.
